One test deals with T1, recombinant human ALDH-2 (Homo sapiens, UniProt P05091).
T1 sequence (P05091 18-517): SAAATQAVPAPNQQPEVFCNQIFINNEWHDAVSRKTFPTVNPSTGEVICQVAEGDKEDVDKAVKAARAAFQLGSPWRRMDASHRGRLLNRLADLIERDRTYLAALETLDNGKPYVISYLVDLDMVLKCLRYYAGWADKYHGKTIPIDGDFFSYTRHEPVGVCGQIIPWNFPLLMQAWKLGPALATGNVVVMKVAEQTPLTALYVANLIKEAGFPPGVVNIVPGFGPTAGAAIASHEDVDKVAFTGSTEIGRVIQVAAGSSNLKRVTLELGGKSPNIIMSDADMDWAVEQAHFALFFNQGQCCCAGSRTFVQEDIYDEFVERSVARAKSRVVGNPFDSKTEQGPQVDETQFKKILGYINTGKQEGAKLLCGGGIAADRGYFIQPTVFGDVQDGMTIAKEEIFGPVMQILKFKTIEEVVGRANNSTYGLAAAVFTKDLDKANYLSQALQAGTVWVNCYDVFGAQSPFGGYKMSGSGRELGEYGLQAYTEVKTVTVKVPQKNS
The test can be described thus: ALDH-2 inhibition assay. The conditions noted are these: 60 min pre-incubation; 10 μM = highest concentration tested; read-out: Enzymatic Assays IC50 ALDH2. The class given is biochemical.

For the next test, the target named is T2, recombinant human ALDH-1 (Homo sapiens, UniProt P00352).
T2 sequence (P00352 1-501): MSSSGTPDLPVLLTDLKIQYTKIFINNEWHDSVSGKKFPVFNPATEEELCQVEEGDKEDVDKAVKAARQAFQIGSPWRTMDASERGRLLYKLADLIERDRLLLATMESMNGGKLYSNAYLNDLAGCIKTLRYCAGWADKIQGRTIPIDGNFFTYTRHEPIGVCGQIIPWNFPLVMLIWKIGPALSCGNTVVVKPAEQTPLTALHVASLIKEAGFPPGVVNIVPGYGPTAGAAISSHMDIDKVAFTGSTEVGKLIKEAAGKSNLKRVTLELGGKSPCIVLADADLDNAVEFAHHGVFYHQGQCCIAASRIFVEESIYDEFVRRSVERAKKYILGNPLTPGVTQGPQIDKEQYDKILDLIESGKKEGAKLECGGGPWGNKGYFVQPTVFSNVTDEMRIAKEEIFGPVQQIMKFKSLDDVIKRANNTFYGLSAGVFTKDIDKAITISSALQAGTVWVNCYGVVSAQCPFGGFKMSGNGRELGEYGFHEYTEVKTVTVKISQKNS
Description: ALDH-1 inhibition assay. It counts as biochemical. As to conditions: 60 min pre-incubation; 10 μM = highest concentration tested; read-out: Enzymatic Assays IC50 ALDH-1.

Our source for the IC50 values is patent US12637427B2, “ALDH-2 inhibitor compounds and methods of use” (Amygdala Neurosciences, Inc., priority 2022, dated 2026).

The structures appear in SMILES notation. Where only a bound is given, the exact number is not on record here.

Description for recombinant human ALDH-1: B. ALDH-1 inhibition assay: The ALDH-1 reaction mixture used in the assay contained 100 μM formaldehyde, 2.5 mM NAD+, 20 mM NaCl, 10 mM MgCl2, 1 mM dithiothreitol (DTT; reducing agent), and 50 nM recombinant human ALDH-1 in 50 mM Hepes buffer, pH 7.5 in a final volume of 10 μL using 384-well Corning 3820 plates. After 60 min of pre-incubation of the test ALDH-2 inhibitor compound with ALDH-1, the reaction was started by adding NAD+ and formaldehyde and the assay reaction mixture was allowed to proceed for 60 minutes. Activity of the ALDH-1 enzyme was determined by monitoring NADH formation using Perkin-Elmer Envision Reader with excitation and emission wavelengths set at 340 and 460 nm, respectively.
Description for recombinant human ALDH-2: A. ALDH-2 inhibition assay: The ALDH-2 reaction mixture used in the assay contained 125 μM formaldehyde, 75 μM NAD+, 20 mM NaCl, 10 mM MgCl2, and 20 nM recombinant human ALDH-2 in 50 mM Hepes buffer, pH 7.5 in a final volume of 10 μL using 384-well Corning 3820 plates. After 60 min of pre-incubation of the test ALDH-2 inhibitor compound with ALDH-2, the reaction was started by adding NAD+ and formaldehyde and the assay reaction mixture was allowed to proceed for 60 minutes. Activity of the ALDH-2 enzyme was determined by monitoring NADH formation using Perkin-Elmer Envision Reader with excitation and emission wavelengths set at 340 and 460 nm, respectively.

Take `Cc1cccc(Cl)c1C(=O)NCc1ccc(-c2cccc(=O)[nH]2)cc1` [(1a), 2-Chloro-6-methyl-N-(4-(6-oxo-1,6-dihydropyridin-2-yl)benzyl)benzamide]: the concentration for half-maximal inhibition (IC50) (usually the concentration needed to halve the response being measured) at recombinant human ALDH-2 is 78 nM; on recombinant human ALDH-1, over 10000 nM.

Regarding `O=C(NCc1ccc(-c2cccc(=O)[nH]2)cc1)c1ccccc1Cl` [(1b), 2-Chloro-N-(4-(6-oxo-1,6-dihydropyridin-2-yl)benzyl)benzamide], the IC50 was 137 nM at recombinant human ALDH-2 and over 10000 nM at recombinant human ALDH-1.

For the compound `Cc1nccc(Cl)c1C(=O)NCc1ccc(-c2cccc(=O)[nH]2)cc1` [(1c), 4-Chloro-2-methyl-N-(4-(6-oxo-1,6-dihydropyridin-2-yl)benzyl)nicotinamide], the half-inhibitory concentration (IC50) on recombinant human ALDH-2 was 128 nM; on recombinant human ALDH-1 it was over 10000 nM.

Take `Cc1nccc(Br)c1C(=O)NCc1ccc(-c2[nH]c(=O)ccc2F)cc1` [(1g), 4-Bromo-N-(4-(3-fluoro-6-oxo-1,6-dihydropyridin-2-yl)benzyl)-2-methylnicotinamide]: the values for the IC50 at recombinant human ALDH-2 and on recombinant human ALDH-1 were 28 nM and over 10000 nM, respectively.

For the compound `Cc1cccc(Cl)c1C(=O)NCc1ccc(-c2cccc(=O)[nH]2)nc1` [(1k), 2-Chloro-6-methyl-N-((6′-oxo-1′,6′-dihydro-[2,2′-bipyridin]-5-yl)methyl)benzamide], the figures for the IC50 at recombinant human ALDH-2 and at recombinant human ALDH-1 were 10 nM and over 10000 nM, respectively.

With `O=C(NCc1ccc(-c2cccc(=O)[nH]2)nc1)c1ccccc1Cl` [(1l), 2-chloro-N-((6′-oxo-1′,6′-dihydro-[2,2′-bipyridin]-5-yl)methyl)benzamide], the IC50 is 118 nM on recombinant human ALDH-2 and over 10000 nM on recombinant human ALDH-1.
